Source: US20250171437A1 (Agios Pharmaceuticals,Inc., priority 2022, published 2025)

These molecules were tested against T1, human PAH with the R408W mutation (A375 R408W cells) (Homo sapiens, UniProt P00439, R408W) (assay: Cell Based Phenylalanine Flux Assay). Conditions: A375 R408W cells; 24 hrs with compound, then 20 μM sepiapterin and 800 μM 13C9,15N-Phenylalanine for 4 hours; 13C-Tyrosine by LC-MS; average where tested multiple times.
T1 construct: expressed in transfected cells
T1 sequence (P00439 1-452 R408W): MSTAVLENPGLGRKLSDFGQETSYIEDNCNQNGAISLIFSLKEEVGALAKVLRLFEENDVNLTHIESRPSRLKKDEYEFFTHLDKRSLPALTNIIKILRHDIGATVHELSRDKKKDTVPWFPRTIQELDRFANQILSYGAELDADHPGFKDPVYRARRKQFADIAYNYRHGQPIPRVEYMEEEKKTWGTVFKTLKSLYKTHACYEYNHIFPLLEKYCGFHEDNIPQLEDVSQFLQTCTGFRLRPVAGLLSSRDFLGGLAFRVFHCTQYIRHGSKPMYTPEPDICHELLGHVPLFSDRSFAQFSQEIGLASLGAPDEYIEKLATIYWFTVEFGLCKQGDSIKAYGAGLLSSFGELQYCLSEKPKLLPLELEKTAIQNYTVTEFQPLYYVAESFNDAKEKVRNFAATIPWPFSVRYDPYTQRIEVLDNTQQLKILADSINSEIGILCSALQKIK
How it was run: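 Phenylalanine-to-tyrosine flux is measured in A375 cells carrying stable human R408W PAH. After 24 h compound exposure, 13C9,15N-Phe (800 μM) with sepiapterin (20 μM) is supplied for 4 h and media 13C-Tyr is read by LC-MS; AC50s are binned.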
Work on `COc1cccc2oc([C@@H]3c4nc[nH]c4CCN3C(=O)c3cnco3)nc12` [Example 621, (S)-(4-(4-methoxybenzo[d]oxazol-2-yl)-6,7-dihydro-1H-imidazo[4,5-c]pyridin-5(4H)-yl)(oxazol-5-yl)methanone] yielded an AC50 of 500 to 1000 nM. `CC(C)(O)c1nc(C(F)F)c(C(=O)N2CCc3[nH]cnc3[C@H]2c2nc3c(F)cc(F)cc3o2)o1` [Example 299, (S)-(4-(4,6-difluorobenzo[d]oxazol-2-yl)-6,7-dihydro-1H-imidazo[4,5-c]pyridin-5(4H)-yl)(4-(difluoromethyl)-2-(2-hydroxypropan-2-yl)oxazol-5-yl)methanone] was tested, and the AC50 was ≤ 500 nM. `CC(C)(O)c1nc(C(F)F)c(C(=O)N2CCc3[nH]cnc3[C@H]2c2nc3cc(Cl)cc(F)c3o2)o1` [Example 605, (S)-(4-(5-chloro-7-fluorobenzo[d]oxazol-2-yl)-6,7-dihydro-1H-imidazo[4,5-c]pyridin-5(4H)-yl)(4-(difluoromethyl)-2-(2-hydroxypropan-2-yl)oxazol-5-yl)methanone] was tested, and the AC50 was ≤ 500 nM. With `CC(C)(C)c1nc(C(F)F)c(C(=O)N2CCc3[nH]cnc3[C@H]2c2nc3cc(F)ccc3o2)o1` [Example 753, (S)-(2-(tert-butyl)-4-(difluoromethyl)oxazol-5-yl)(4-(5-fluorobenzo[d]oxazol-2-yl)-6,7-dihydro-1H-imidazo[4,5-c]pyridin-5(4H)-yl)methanone] the AC50 was ≤ 500 nM. In the case of `C[C@H](O)c1nc(C(F)F)c(C(=O)N2CCc3[nH]cnc3[C@H]2c2nc3cccc(F)c3o2)o1` [Example 243, (4-(difluoromethyl)-2-((S)-1-hydroxyethyl)oxazol-5-yl)((S)-4-(7-fluorobenzo[d]oxazol-2-yl)-6,7-dihydro-1H-imidazo[4,5-c]pyridin-5(4H)-yl)methanone], the AC50 is reported as ≤ 500 nM. For `COc1cccc2nc([C@@H]3c4nc[nH]c4CCN3C(=O)c3ncnn3C)oc12` [Example 775, (S)-(4-(7-methoxybenzo[d]oxazol-2-yl)-6,7-dihydro-1H-imidazo[4,5-c]pyridin-5(4H)-yl)(1-methyl-1H-1,2,4-triazol-5-yl)methanone], the AC50 was 500 to 1000 nM. For `O=C(c1cnc(-c2ccccn2)o1)N1CCc2[nH]cnc2[C@H]1c1nc2ccc(Br)cc2o1` [Example 7, (S)-(4-(6-bromobenzo[d]oxazol-2-yl)-6,7-dihydro-1H-imidazo[4,5-c]pyridin-5(4H)-yl)(2-(pyridin-2-yl)oxazol-5-yl)methanone], the AC50 was 500 to 1000 nM. Molecule `CC(C)(O)C1CCN(c2ccc3c(C(=O)N4CCc5[nH]cnc5[C@H]4c4nc5cccc(F)c5o4)cnn3c2)CC1` [Example 368, (S)-(4-(7-fluorobenzo[d]oxazol-2-yl)-6,7-dihydro-1H-imidazo[4,5-c]pyridin-5(4H)-yl)(6-(4-(2-hydroxypropan-2-yl)piperidin-1-yl)pyrazolo[1,5-a]pyridin-3-yl)methanone] has an AC50 of 500 to 1000 nM. `O=C(c1cnn2cc(Br)ccc12)N1CCc2[nH]cnc2[C@@H]1c1nc2cc(F)ccc2o1` [Example 70, (R)-(6-bromopyrazolo[1,5-a]pyridin-3-yl)(4-(5-fluorobenzo[d]oxazol-2-yl)-6,7-dihydro-1H-imidazo[4,5-c]pyridin-5(4H)-yl)methanone] showed an AC50 of 1000 to 5000 nM. `O=C(c1cnn2ccccc12)N1Cc2[nH]cnc2[C@H]1c1nc2ccccc2o1` [Example 929, (S)-(4-(benzo[d]oxazol-2-yl)-4,6-dihydropyrrolo[3,4-d]imidazol-5(1H)-yl)(pyrazolo[1,5-a]pyridin-3-yl)methanone] gave an AC50 of 1000 to 5000 nM. With `Cc1ccc2c(C(=O)N3CCc4[nH]cnc4[C@H]3c3nc4cccc(F)c4o3)cnn2c1` [Example 323, (S)-(4-(7-fluorobenzo[d]oxazol-2-yl)-6,7-dihydro-1H-imidazo[4,5-c]pyridin-5(4H)-yl)(6-methylpyrazolo[1,5-a]pyridin-3-yl)methanone] the AC50 was ≤ 500 nM. Work on `Cn1ccc(-c2nc(C(F)F)c(C(=O)N3CCc4[nH]cnc4[C@@H]3c3nc4cc(F)ccc4o3)o2)n1` [Example 412, (R)-(4-(difluoromethyl)-2-(1-methyl-1H-pyrazol-3-yl)oxazol-5-yl)(4-(5-fluorobenzo[d]oxazol-2-yl)-6,7-dihydro-1H-imidazo[4,5-c]pyridin-5(4H)-yl)methanone] yielded an AC50 of 500 to 1000 nM. Molecule `CC(C)(CO)c1nc(C(F)F)c(C(=O)N2CCc3[nH]cnc3[C@@H]2c2nc3cc(F)ccc3o2)o1` [Example 823, (R)-(4-(difluoromethyl)-2-(1-hydroxy-2-methylpropan-2-yl)oxazol-5-yl)(4-(5-fluorobenzo[d]oxazol-2-yl)-6,7-dihydro-1H-imidazo[4,5-c]pyridin-5(4H)-yl)methanone] has an AC50 of 1000 to 5000 nM. `Cc1c(F)ccc2oc([C@H]3c4nc[nH]c4CCN3C(=O)c3ocnc3C(F)F)nc12` [Example 721, (R)-(4-(difluoromethyl)oxazol-5-yl)(4-(5-fluoro-4-methylbenzo[d]oxazol-2-yl)-6,7-dihydro-1H-imidazo[4,5-c]pyridin-5(4H)-yl)methanone] was tested, and the AC50 was 1000 to 5000 nM. `CC(C)(O)c1nc(C(F)F)c(C(=O)N2CCc3[nH]cnc3[C@@H]2c2nc3c(F)ccc(F)c3o2)o1` [Example 346, (R)-(4-(4,7-difluorobenzo[d]oxazol-2-yl)-6,7-dihydro-1H-imidazo[4,5-c]pyridin-5(4H)-yl)(4-(difluoromethyl)-2-(2-hydroxypropan-2-yl)oxazol-5-yl)methanone] gave an AC50 of 1000 to 5000 nM. Molecule `CN(C)CCc1cn2ncc(C(=O)N3CCc4[nH]cnc4[C@@H]3c3nc4cc(F)ccc4o3)c2cc1Cl` [Example 80, (R)-(5-chloro-6-(2-(dimethylamino)ethyl)pyrazolo[1,5-a]pyridin-3-yl)(4-(5-fluorobenzo[d]oxazol-2-yl)-6,7-dihydro-1H-imidazo[4,5-c]pyridin-5(4H)-yl)methanone] has an AC50 of 1000 to 5000 nM. With `O=C(c1nnc(-c2ncccc2F)o1)N1CCc2[nH]cnc2[C@H]1c1nc2cccc(C(F)(F)F)c2o1` [Example 840, (S)-(5-(3-fluoropyridin-2-yl)-1,3,4-oxadiazol-2-yl)(4-(7-(trifluoromethyl)benzo[d]oxazol-2-yl)-6,7-dihydro-1H-imidazo[4,5-c]pyridin-5(4H)-yl)methanone] the AC50 was ≤ 500 nM. `COc1cccc2nc([C@H]3c4nc[nH]c4CCN3C(=O)c3nc(C)nn3C)oc12` [Example 910, (R)-(1,3-dimethyl-1H-1,2,4-triazol-5-yl)(4-(7-methoxybenzo[d]oxazol-2-yl)-6,7-dihydro-1H-imidazo[4,5-c]pyridin-5(4H)-yl)methanone] was tested, and the AC50 was ≥ 5000 nM. With `O=C(c1ocnc1C(F)F)N1CCc2[nH]cnc2[C@H]1c1nc2cccc(OC(F)(F)F)c2o1` [Example 532, (S)-(4-(difluoromethyl)oxazol-5-yl)(4-(7-(trifluoromethoxy)benzo[d]oxazol-2-yl)-6,7-dihydro-1H-imidazo[4,5-c]pyridin-5(4H)-yl)methanone] the AC50 was ≤ 500 nM. Molecule `Cc1cccc2oc([C@@H]3c4nc[nH]c4CCN3C(=O)c3ncnn3C)nc12` [Example 901, (S)-(1-methyl-1H-1,2,4-triazol-5-yl)(4-(4-methylbenzo[d]oxazol-2-yl)-6,7-dihydro-1H-imidazo[4,5-c]pyridin-5(4H)-yl)methanone] has an AC50 of 500 to 1000 nM. `O=C(c1nnc(-c2cccnc2)o1)N1CCc2[nH]cnc2[C@@H]1c1nc2cc(F)ccc2o1` [Example 400, (R)-(4-(5-fluorobenzo[d]oxazol-2-yl)-6,7-dihydro-1H-imidazo[4,5-c]pyridin-5(4H)-yl)(5-(pyridin-3-yl)-1,3,4-oxadiazol-2-yl)methanone] gave an AC50 of 1000 to 5000 nM. For `COc1cc(F)cc2nc([C@@H]3c4nc[nH]c4CCN3C(=O)c3ocnc3C(F)F)oc12` [Example 718, (S)-(4-(difluoromethyl)oxazol-5-yl)(4-(5-fluoro-7-methoxybenzo[d]oxazol-2-yl)-6,7-dihydro-1H-imidazo[4,5-c]pyridin-5(4H)-yl)methanone], the AC50 was ≤ 500 nM. With `O=C(c1ocnc1C(F)F)N1CCc2[nH]cnc2[C@@H]1c1nc2c(F)c(F)ccc2o1` [Example 349, (R)-(4-(4,5-difluorobenzo[d]oxazol-2-yl)-6,7-dihydro-1H-imidazo[4,5-c]pyridin-5(4H)-yl)(4-(difluoromethyl)oxazol-5-yl)methanone] the AC50 was 500 to 1000 nM.

Same assay, conditions: A375 cells expressing R408W PAH; 24 hrs with compound, then 20 μM sepiapterin and 800 μM 13C9,15N-Phenylalanine for 4 hours; 13C-Tyrosine by LC-MS; average where tested multiple times
`O=C(CCc1nccs1)N1CCc2[nH]cnc2C1c1nc2cc(F)ccc2o1` (stereo not drawn) showed an AC50 of 1000 to 5000 nM. `Fc1ccc2oc(C3c4nc[nH]c4CCN3Cc3cnco3)nc2c1` (stereo not drawn) was tested, and the AC50 was ≥ 5000 nM. `Cc1nc(C(C)(C)O)oc1C(=O)N1CCc2[nH]cnc2C1c1nc2cc(F)ccc2o1` (stereo not drawn) gave an AC50 of 1000 to 5000 nM. `O=C(c1cnco1)N1CCc2[nH]cnc2C1c1nc2c(F)cc(F)cc2o1` (stereo not drawn) showed an AC50 of 1000 to 5000 nM. `CC(C)(O)c1cc(C(=O)N2CCc3[nH]cnc3C2c2nc3cc(F)ccc3o2)no1` (stereo not drawn) was tested, and the AC50 was ≥ 5000 nM. For `Cc1nc(-c2cnn(C)c2)sc1C(=O)N1CCc2[nH]cnc2C1c1nc2cc(F)ccc2o1` (stereo not drawn), the AC50 was 1000 to 5000 nM. Molecule `COCCc1ccc2c(C(=O)N3CCc4[nH]cnc4C3c3nc4cc(F)ccc4o3)cnn2c1` (stereo not drawn) has an AC50 of 1000 to 5000 nM. Molecule `O=C(CCc1cncs1)N1CCc2[nH]cnc2C1c1nc2ccc(F)cc2o1` (stereo not drawn) has an AC50 of 1000 to 5000 nM. With `CC1CN(C(=O)c2oc(C(C)(C)O)nc2C(F)F)C(c2nc3cc(F)ccc3o2)c2nc[nH]c21` (stereo not drawn) the AC50 was 1000 to 5000 nM. `Cc1nc(C(C)(C)O)oc1C(=O)N1CCc2[nH]cnc2C1c1nc2ccc(F)cc2o1` (stereo not drawn) was tested, and the AC50 was ≥ 5000 nM.
